Laboratory results published in patent US6914045B2, “Glycopeptide antibiotics” (Wyeth Holdings Corporation, priority 2001, dated 2005).
Converted amounts (≈) assume the structure as drawn.

Tests used:
Assay in all cases: in vitro antibacterial evaluation, MIC by broth dilution
Assay type in all cases: cell-based
Escherichia coli = conditions: 18 hours at 35° C.
How it was run: (§1)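 Read-out: the lowest concentration at which the test strain fails to grow. Serial dilutions (64-0.06 μg/mL) in Muller-Hinton II […], 5×10^5 CFU/mL inoculum, NCCLS M7-A2 procedure.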

Enterococcus sp. = conditions: broth dilution, 18 hours at 35° C.
How it was run: as §1

Staphylococcus sp. = conditions: broth dilution, 18 hours at 35° C.
How it was run: as §1

Streptococcus sp. = conditions: broth dilution, 18 hours at 35° C.
How it was run: as §1

CC=C(C)C(=O)OC1C(CO)OC(OC2C(CO)OC(Oc3ccc(CC4NC(=O)C(C(C)c5ccccc5)NC(=O)CNC(=O)C(CO)NC(=O)C(C(O)C5CNC(=N)N5C5OC(CO)C(O)C(O)C5O)NC(=O)C(C(O)C5CNC(=N)N5)NC4=O)cc3)C(O)C2O)C(O)C1O (stereo not drawn) [Example 278b, Cyclo[glycyl-β-methylphenylalanyl-O-[4-O-[4-O-(2-methylbut-2-enoyl)hexopyranosyl]-hexopyranosyl]tyrosyl-3-(2-iminoimidazolidin-4-yl)seryl-3-(3-hexopyranosyl-2-imino-imidazolidin-4-yl)serylseryl]]
MIC Escherichia coli (ATCC 25922) (Escherichia coli; Escherichia coli (ATCC 25922)): >64 µg/mL
MIC Escherichia coli (GC 4559) (Escherichia coli; Escherichia coli (GC 4559)): >64 µg/mL
MIC Escherichia coli (GC 4560) (Escherichia coli; Escherichia coli (GC 4560)): 4 µg/mL (≈ 2.9 µM)
MIC Enterococcus avium (GC 4558) (Enterococcus sp.; Enterococcus avium (GC 4558)): 32 µg/mL (≈ 23.2 µM)
MIC Enterococcus faecalis (ATCC 29212) (Enterococcus sp.; Enterococcus faecalis (ATCC 29212)): 32 µg/mL (≈ 23.2 µM)
MIC Enterococcus faecalis (GC 4553) (Enterococcus sp.; Enterococcus faecalis (GC 4553)): 32 µg/mL (≈ 23.2 µM)
MIC Enterococcus faecalis (GC 4554) (Enterococcus sp.; Enterococcus faecalis (GC 4554)): 32 µg/mL (≈ 23.2 µM)
MIC Enterococcus faecalis (GC 6189) (Enterococcus sp.; Enterococcus faecalis (GC 6189)): 32 µg/mL (≈ 23.2 µM)
MIC Enterococcus faecium (GC 2243) (Enterococcus sp.; Enterococcus faecium (GC 2243)): 32 µg/mL (≈ 23.2 µM)
MIC Enterococcus faecium (GC 4556) (Enterococcus sp.; Enterococcus faecium (GC 4556)): 32 µg/mL (≈ 23.2 µM)
MIC Enterococcus faecium (GC 4557) (Enterococcus sp.; Enterococcus faecium (GC 4557)): 8 µg/mL (≈ 5.81 µM)
MIC Enterococcus faecalis (ATCC 29212) (Enterococcus sp.; strain ATCC 29212): 32 µg/mL (≈ 23.2 µM)
MIC Enterococcus faecalis (GC 2242) (Enterococcus sp.; strain GC 2242): 32 µg/mL (≈ 23.2 µM)
MIC Enterococcus faecium (GC 2243) (Enterococcus sp.; strain GC 2243): 32 µg/mL (≈ 23.2 µM)
MIC Enterococcus faecalis (GC 2691) (Enterococcus sp.; strain GC 2691): 32 µg/mL (≈ 23.2 µM)
MIC Enterococcus faecalis (GC 3059) (Enterococcus sp.; strain GC 3059): 64 µg/mL (≈ 46.5 µM)
MIC Enterococcus faecalis (GC 4552) (Enterococcus sp.; strain GC 4552): 32 µg/mL (≈ 23.2 µM)
MIC Enterococcus faecalis (GC 4553) (Enterococcus sp.; strain GC 4553): 32 µg/mL (≈ 23.2 µM)
MIC Enterococcus faecalis (GC 4554) (Enterococcus sp.; strain GC 4554): 32 µg/mL (≈ 23.2 µM)
MIC Enterococcus faecium (GC 4556) (Enterococcus sp.; strain GC 4556): 32 µg/mL (≈ 23.2 µM)
MIC Enterococcus faecium (GC 4557) (Enterococcus sp.; strain GC 4557): 8 µg/mL (≈ 5.81 µM)
MIC Enterococcus avium (GC 4558) (Enterococcus sp.; strain GC 4558): 32 µg/mL (≈ 23.2 µM)
MIC Enterococcus faecalis (GC 6189) (Enterococcus sp.; strain GC 6189): 32 µg/mL (≈ 23.2 µM)
MIC Coagulase Negative Staphylococcus (GC 4547) (Staphylococcus sp.): 4 µg/mL (≈ 2.9 µM)
MIC Coagulase Negative Staphylococcus (GC 4548) (Staphylococcus sp.): 4 µg/mL (≈ 2.9 µM)
MIC Coagulase Negative Staphylococcus (GC 4549) (Staphylococcus sp.): 2 µg/mL (≈ 1.45 µM)
MIC Coagulase Negative Staphylococcus (GC 4551) (Staphylococcus sp.): 8 µg/mL (≈ 5.81 µM)
MIC Coagulase Negative Staphylococcus (GC 6257) (Staphylococcus sp.): 2 µg/mL (≈ 1.45 µM)
MIC Staphylococcus aureus (ATCC 29213) (Staphylococcus sp.): 8 µg/mL (≈ 5.81 µM)
MIC Staphylococcus aureus (GC 1131) (Staphylococcus sp.): 8 µg/mL (≈ 5.81 µM)
MIC Staphylococcus aureus (GC 3051) (Staphylococcus sp.): 4 µg/mL (≈ 2.9 µM)
MIC Staphylococcus aureus (GC 3053) (Staphylococcus sp.): 8 µg/mL (≈ 5.81 µM)
MIC Staphylococcus aureus (GC 4541) (Staphylococcus sp.): 8 µg/mL (≈ 5.81 µM)
MIC Staphylococcus aureus (GC 4542) (Staphylococcus sp.): 8 µg/mL (≈ 5.81 µM)
MIC Staphylococcus aureus (GC 4544) (Staphylococcus sp.): 8 µg/mL (≈ 5.81 µM)
MIC Staphylococcus aureus (GC 4545) (Staphylococcus sp.): 4 µg/mL (≈ 2.9 µM)
MIC Staphylococcus aureus-SMITH (GC 4543) (Staphylococcus sp.): 8 µg/mL (≈ 5.81 µM)
MIC Staphylococcus haemolyticus (GC 4546) (Staphylococcus sp.): 4 µg/mL (≈ 2.9 µM)
MIC Staphylococcus aureus (ATCC 29213) (Staphylococcus sp.; strain ATCC 29213): 8 µg/mL (≈ 5.81 µM)
MIC Staphylococcus aureus (GC 1131) (Staphylococcus sp.; strain GC 1131): 8 µg/mL (≈ 5.81 µM)
MIC Staphylococcus aureus (GC 3051) (Staphylococcus sp.; strain GC 3051): 4 µg/mL (≈ 2.9 µM)
MIC Staphylococcus aureus (GC 3053) (Staphylococcus sp.; strain GC 3053): 8 µg/mL (≈ 5.81 µM)
MIC Staphylococcus aureus (GC 4541) (Staphylococcus sp.; strain GC 4541): 8 µg/mL (≈ 5.81 µM)
MIC Staphylococcus aureus (GC 4542) (Staphylococcus sp.; strain GC 4542): 8 µg/mL (≈ 5.81 µM)
MIC Staphylococcus aureus (GC 4544) (Staphylococcus sp.; strain GC 4544): 8 µg/mL (≈ 5.81 µM)
MIC Staphylococcus aureus (GC 4545) (Staphylococcus sp.; strain GC 4545): 4 µg/mL (≈ 2.9 µM)
MIC Staphylococcus haemolyticus (GC 4546) (Staphylococcus sp.; strain GC 4546): 4 µg/mL (≈ 2.9 µM)
MIC Coagulase Negative Staphylococcus (GC 4547) (Staphylococcus sp.; strain GC 4547): 4 µg/mL (≈ 2.9 µM)
MIC Coagulase Negative Staphylococcus (GC 4548) (Staphylococcus sp.; strain GC 4548): 4 µg/mL (≈ 2.9 µM)
MIC Coagulase Negative Staphylococcus (GC 4549) (Staphylococcus sp.; strain GC 4549): 2 µg/mL (≈ 1.45 µM)
MIC Coagulase Negative Staphylococcus (GC 4551) (Staphylococcus sp.; strain GC 4551): 8 µg/mL (≈ 5.81 µM)
MIC Coagulase Negative Staphylococcus (GC 6257) (Staphylococcus sp.; strain GC 6257): 2 µg/mL (≈ 1.45 µM)
MIC Staphylococcus aureus-SMITH (GC 4543) (Staphylococcus sp.; strain SMITH GC 4543): 8 µg/mL (≈ 5.81 µM)
MIC Streptococcus pneumoniae (ATCC 6301) (Streptococcus sp.; strain ATCC 6301): 1 µg/mL (≈ 0.726 µM)
MIC Streptococcus pneumoniae (GC 1894) (Streptococcus sp.; strain GC 1894): 1 µg/mL (≈ 0.726 µM)
MIC Streptococcus pyogenes (GC 4563) (Streptococcus sp.; strain GC 4563): 2 µg/mL (≈ 1.45 µM)
MIC Streptococcus agalactiae (GC 4564) (Streptococcus sp.; strain GC 4564): 4 µg/mL (≈ 2.9 µM)
MIC Streptococcus pneumoniae (GC 4565) (Streptococcus sp.; strain GC 4565): 2 µg/mL (≈ 1.45 µM)
